In brackets after ≈: the same amount, converted by molar mass. Non-standard residues stand in square brackets, D forms with d. Residues, ends and D or L forms follow the SMILES beside them. No end group written: not given here.
Tests used:
S. aureus biofilm = format: cell-based, Staphylococcus aureus; conditions: for MBEC: 48 h
Method: MBIC and MBEC assays were performed using microtiter plates based on a modified 2,3,5-triphenyl tetrazolium chloride (TTC) method (Sabaeifard et al., [2014]). Overnight cultures were washed with sterile phosphate-buffered saline (PBS) and diluted with fresh broth to 10^7 CFU/ml. […] For the MBEC assay, 200 μl of inoculum was placed in a flat-bottomed microtiter plate for 48 h to form mature biofilms. Following sufficient growth time, mature biofilms were washed twice to remove the planktonic cells and incubated with a series of peptide concentrations (1–512 μg/ml) at 37°C for 20–24 h. After sufficient growth, plates were washed twice with sterile PBS followed by the addition of fresh medium (200 μl per well) and stained with 50 μl 1% TTC (g/v) solution for 5 h. After incubation, 200 μl of the supernatant from each well were transferred to a new plate and their absorbance values were measured at 470 nm using a Synergy HT plate reader (BioTek, USA).

[1] = tested on: Staphylococcus aureus (NCTC10788)
Method: (§1) The antimicrobial activity of each synthetic peptide was evaluated using the broth dilution method (Wiegand et al., [2008]). In brief, different concentrations of the peptides were incubated with microorganisms under defined conditions. Six different microorganisms were used in the assay: the Gram-positive bacteria Staphylococcus aureus (NCTC10788), Enterococcus faecalis (NCTC12697), and methicillin-resistant Staphylococcus aureus (MRSA) (NCTC 12493); the Gram-negative bacteria Escherichia coli (NCTC 10418) and Pseudomonas aeruginosa (ATCC 27853); and the yeast Candida albicans (NCYC 1467). Each microorganism was cultured in fresh Mueller-Hinton broth (MHB) overnight and then subcultured in fresh medium to a cell density equivalent to 10^8 colony-forming units (CFU)/ml. The microbial suspension was diluted with fresh MHB to a concentration of 1 × 10^5 CFU/ml. Peptide samples were dissolved in the culture medium MHB to prepare a 100-fold stock solutions and then 1 μl of each peptide solution was mixed with 99 μl of diluted bacterial culture to get a final concentration range from 1 to 512 μg/ml in two-fold dilution. […] From these wells, 10 μl of the overnight culture were added to a Mueller-Hinton agar (MHA) plate and cultured at 37°C for 16–20 h.

[2] = tested on: Candida albicans (NCYC 1467)
Method: as §1

[3] = tested on: Enterococcus faecalis (NCTC12697)
Method: as §1

[4] = tested on: methicillin-resistant Staphylococcus aureus (MRSA) (NCTC 12493)
Method: as §1

horse erythrocytes = format: cell-based
Method: The haemolysis assay was performed by mixing the peptides with mammalian erythrocytes obtained from fresh defibrinated horse blood. An appropriate volume of horse blood was transferred and washed with PBS until the supernatant was clear. A series of peptide solutions were incubated with a 2% suspension of red blood cells at final concentrations of 1-512 μg/ml at 37°C for 2 h. For positive and negative controls, the red blood cells were incubated with 1% Triton-X 100 and PBS, respectively. After incubation, 200 μl of the supernatant from each sample was transferred to a microtiter plate and the absorbance at 550 nm was measured with a Synergy HT plate reader (BioTek, USA). The therapeutic index (TI), a parameter recommended by the US FDA to indicate safety/efficacy usage, was calculated as the peptide concentration causing 50% haemolysis of the red bloods cells (HC50) divided by the geometric mean of the peptide MICs against the relevant bacteria (GM). […] In the former case, the MIC that was used when no inhibition was observed was the 2-fold maximum tested value ([…] al., [2016]). Data were analyzed to obtain the mean and standard error of responses. The statistical analyses were performed by one-way ANOVA and the statistical significance of the differences was indicated as ^*p < 0.05, ^**p < 0.01, ^***p < 0.001, and ^****p < 0.0001. The dose-response curves were constructed using a “best-fit” algorithm and HC50 was calculated through the data analysis package provided in GraphPad Prism 6 (GraphPad Software, USA).

[5] = tested on: Pseudomonas aeruginosa (ATCC 27853)
Method: as §1

[6] = tested on: Escherichia coli (NCTC 10418)
Method: as §1

Method for E. coli: The stability of the peptides was investigated by incubating them with serum and evaluating the loss of antimicrobial activity. […] Following a 4 h incubation at 37°C, the peptide solutions were briefly centrifuged and 1 μl of each concentration was mixed with 99 μl of diluted bacterial culture (5 × 10^5 CFU/ml) in a 96-well plate. The plate was then incubated at 37°C for 16–20 h. The MICs in the presence of serum were determined by use of a Synergy HT plate reader (BioTek, USA).

Compound	MBIC (S. aureus biofilm)	MBEC (S. aureus biofilm)	MBC [1]	MIC [1]	MBC [2]	MIC [2]	MBC [3]	MIC [3]	MBC [4]	MIC [4]	HC50 (horse erythrocytes)	MBC [5]	MIC [5]	MIC after serum degradation 4 h (E. coli)	MBC [6]	MIC [6]	haemolytic activity (in words) (horse erythrocytes)
LLGMIPVAIKAISALSKL-NH2 [medusin-PT1]	32 µg/mL	128 µg/mL	16 µg/mL	8 µg/mL	16/16 μg/ml	16/16 μg/ml	32/32 μg/ml	32/32 μg/ml	32 µg/mL	16 µg/mL	102.2 µg/mL	>512/>512 μg/ml	>512/>512 μg/ml	> 512 µg/mL			
CC[C@H](C)[C@H](NC(=O)[C@H](C)NC(=O)[C@H](CCCCN)NC(=O)[C@@H](NC(=O)[C@H](C)NC(=O)[C@@H](NC(=O)[C@@H]1CCCN1C(=O)[C@@H](NC(=O)[C@H](CCSC)NC(=O)CNC(=O)[C@@H](CC(C)C)NC(=O)[C@@H](N)CC(C)C)[C@@H](C)CC)C(C)C)[C@@H](C)CC)C(=O)N[C@@H](CO)C(=O)N[C@@H](C)C(=O)N[C@@H](CC(C)C)C(=O)N[C@@H](CO)C(=O)N[C@@H](CCCCN)C(=O)N[C@@H](CC(C)C)C(N)=O [medusin-PT1a] (H-L[dL]GMIPVAIKAISALSKL-NH2)	32 µg/mL	64 µg/mL	16 µg/mL (≈ 8.71 µM)	8 µg/mL (≈ 4.35 µM)	8/8 μg/ml	8/8 μg/ml	32/32 μg/ml	32/32 μg/ml	32 µg/mL (≈ 17.4 µM)	16 µg/mL (≈ 8.71 µM)	226.7 µg/mL	> 512 µg/mL	128 µg/mL (≈ 69.7 µM)		128/128 μg/ml	128/128 μg/ml	
LLGMIKVAITAISALSKL-NH2 [medusin-PT2]	32 µg/mL	256 µg/mL	16 µg/mL	8 µg/mL	8/8 μg/ml	8/8 μg/ml	32/32 μg/ml	32/32 μg/ml	32/32 μg/ml	32/32 μg/ml	93.83 µg/mL	>512/>512 μg/ml					
LLGMIPVAITAISALSKL-NH2 [medusin-PT]	512 µg/mL	>512 µg/mL	128 µg/mL	64 µg/mL	>512/>512 μg/ml	>512/>512 μg/ml	>512/>512 μg/ml	>512/>512 μg/ml	>512/>512 μg/ml	>512/>512 μg/ml	1.814e+06 µg/mL	>512/>512 μg/ml			>512/>512 μg/ml		extremely low haemolytic activity

— paper PMC5395648, “Targeted Modification of a Novel Amphibian Antimicrobial Peptide from Phyllomedusa tarsius to Enhance Its Activity against MRSA and Microbial Biofilm” (Frontiers in Microbiology, 2017)
